According to US20240190821A1, “SULFONAMIDE SUBSTITUTED N-(1H-INDOL-7-YL)BENZENESULFONAMIDES AND USES THEREOF” (Triana Biomedicines, Inc., priority 2021, published 2024):
Like-named read-outs stand apart in the source and are kept apart here.

How the values were obtained:
HCT116 cells = experiment: HCT116 cell viability using CellTiter-Glo; assay type: cell-based; details: read-out: 3-Day CTG IC50 in HCT116
Method: Example 108: Measurement of HCT116 Cell Viability Using CellTiter-Glo
HCT116 cells with the passage number ranging from 13 to 25 were plated in an opaque-walled 384 well plate (Corning, Cat. #3765, Corning, NY) at a density of 1000 cells/well in 50 μl medium containing McCoy's 5A medium (Cat. #16600082, ThermoFisher, Waltham, MA), 10% Fetal Bovine Serum (Cat. #26140, ThermoFisher, Waltham, MA) and 1% Pen-Strep (Cat. #. 15070063, ThermoFisher, Waltham, MA). After overnight incubation, cells were treated with various concentrations of compounds (0-10 μM) in DMSO (final concentration of 0.2% DMSO) for 72 h. CellTiter-Glo® Reagent (Cat. #G7573, Promega, Waltham, MA) was then added to all wells. The plates were placed on an orbital shaker to mix the content and induce cell lysis. The plates were then incubated at room temperature for 10 minutes to stabilize luminescent signal. The luminescence was recorded using Envision multilabel plate reader (Perkin-Elmers, Waltham, MA) and the data was fit by using Excel-fit (Microsoft, Redmond, WA).

[1] = target: T1, DCAF15-RBM39 ternary complex (Homo sapiens, UniProt Q14498+Q66K64); experiment: Compound-induced DCAF15-RBM39 ternary complex formation, AlphaLISA; assay type: biochemical; details: AlphaLISA, His-tagged DCAF15 complex and biotin-carrying RBM39; read-out: Ternary-RBM39 (RRM2) EC50
T1 construct: (RRM2)
Outline: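 Protein mixture incubated with compounds for one hour at room temperature; AlphaLISA beads then added sequentially, 1-2 h at room temperature after each. No-compound wells served as negative controls; His-tagged biotinylated GST tracked assay performance.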

RBM39 = target: T2, RBM39 (Homo sapiens, UniProt Q14498+Q66K64); experiment: Western blot assay for degradation of RBM39 in HCT116 cells; assay type: cell-based; details: HCT116, 4 h
T2 construct: endogenous in cells; host or cells: HCT116
Method: Example 107: Western Blot Assay Procedure for Assessing Degradation of RBM39 in HCT116 Cells
HCT116 cells were used with passage numbers ranging from 13 to 25. Cells were seeded in 12-well plated at a density of 1 million cells per well in 1 mL cell culture medium containing McCoy's 5A medium (Cat. #16600082, ThermoFisher, Waltham, MA), 10% Fetal Bovine Serum (Cat. #26140, ThermoFisher, Waltham, MA) and 1% Pen-Strep (Cat. #. 15070063, ThermoFisher, Waltham, MA) and incubated overnight. The next morning, compounds were serially diluted (1:3, 9 points) in the medium separately and were prepared 2× the final assay concentration. Subsequently, 1.0 mL medium containing DMSO or the appropriate concentration of each compound was added to respective wells. The final DMSO concentration in each well was 0.1%. […] Cells were then washed once with 1 mL of ice cold Dulbecco's phosphate-buffered saline (Cat. #28374, ThermoFisher, Waltham, MA) and then lysed with 100 μl of lysis buffer containing 1× RIPA (Cat. #. 89900, ThermoFisher, Waltham, MA) and HALT protease and phosphatase inhibitor (Cat. #78442, ThermoFisher, Waltham, MA) on ice for 10 minutes with intermittent rocking. Lysates were then sonicated in a sonication bath (3 pulses of 10 sec each with 1 min incubation on ice between each pulse). Samples were then centrifuged for 20 min at 14,000 rpm for 20 min. Supernatants were then transferred to fresh microfuge tubes and stored frozen at −80° C. until use. Total protein quantitation in lysate samples was done using the BCA protein quantitation kit following the manufacturer's instructions. For polyacrylamide gel electrophoresis, each sample ([…] total protein), was diluted with Laemmli sample buffer (Cat. #. 1610747, BioRad, Hercules, CA) by adding 9 ul of lysate to 3 ul of sample buffer containing 10% β-mercaptoethanol. Samples were then denatured at 95° C. for 5 minutes in a heat block, centrifuged at 14,000 rpm for 5 min, and placed on ice. Subsequently, 12 ul of each sample was loaded on 4-20% Tris/Glycine gels and electrophoresed in 1×Tris/Glycine SDS buffer at 80 (constant) volts for 2 h. Resolved samples were then transferred from gels to PVDF membrane using the BioRad Turbo-transfer unit with the Turbo default program (Cat. #. 1704150EDU, BioRad, Hercules, CA). For immunoblotting, membranes were first blocked for 1 hour at room temperature using Odyssey Blocking Buffer (Cat. #: 927-60001, Li-cor, Lincoln, NE) with continuous rocking. Membrane was then incubated with primary antibodies, anti-RBM39 (Sigma Cat. #: HPA001591, St. Louis, MO) and anti-β-actin (Cell Signaling Cat. #3700S, Danvers, MA), diluted 1000 fold each, at 4° C. for overnight. Subsequently, membrane was washed three times for at room temperature with continuous rocking (5 minutes each wash) using TBS buffer containing 0.1% Tween-20. After the final wash, secondary antibodies, IRDye 680 RD Goat anti Mouse IgG H+L (Cat. #: 926-68070, Li-cor, Lincoln, NE), and IRDye 800CW Goat anti Rabbit IgG H+L (Cat. #: 926-32211, Li-cor, Lincoln, NE), each diluted 10,000-fold, were added to the membranes and incubated at room temperature for 1 h with continuous rocking. Membranes were then washed 3 times with 1×TBS and scanned using Odessey CLx imaging system (Li-cor, Lincoln, NE) using default settings. Band intensity in images was quantified using the Image Studio Lite software (Version 5.2). Signal intensity for RBM-39 specific bands were normalized using the signal intensity for β-actin-specific band, and percent degradation was assessed by comparing RBM39 signal in compound-treated vs. DMSO-treated samples.

DCAF15 = DCAF15 (Homo sapiens, UniProt Q66K64); experiment: Binary interaction between compounds and DCAF15, HTRF competition assay; assay type: binding; details: HTRF competition with Alexa Fluor 647 tracer, His-tagged DCAF15 complex; read-out: DCAF15 IC50
Outline: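 HTRF competition format: DCAF15 premixed 15 min at room temperature with anti-6His-Eu cryptate antibody, then combined with tracer and compound. Binding derived from ratiometric signal with titration curves; no-DCAF15 wells as controls.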

[2] = Homo sapiens, HCT-116, HCT116, 72 h

T1 sequence (Q66K64 whole entry): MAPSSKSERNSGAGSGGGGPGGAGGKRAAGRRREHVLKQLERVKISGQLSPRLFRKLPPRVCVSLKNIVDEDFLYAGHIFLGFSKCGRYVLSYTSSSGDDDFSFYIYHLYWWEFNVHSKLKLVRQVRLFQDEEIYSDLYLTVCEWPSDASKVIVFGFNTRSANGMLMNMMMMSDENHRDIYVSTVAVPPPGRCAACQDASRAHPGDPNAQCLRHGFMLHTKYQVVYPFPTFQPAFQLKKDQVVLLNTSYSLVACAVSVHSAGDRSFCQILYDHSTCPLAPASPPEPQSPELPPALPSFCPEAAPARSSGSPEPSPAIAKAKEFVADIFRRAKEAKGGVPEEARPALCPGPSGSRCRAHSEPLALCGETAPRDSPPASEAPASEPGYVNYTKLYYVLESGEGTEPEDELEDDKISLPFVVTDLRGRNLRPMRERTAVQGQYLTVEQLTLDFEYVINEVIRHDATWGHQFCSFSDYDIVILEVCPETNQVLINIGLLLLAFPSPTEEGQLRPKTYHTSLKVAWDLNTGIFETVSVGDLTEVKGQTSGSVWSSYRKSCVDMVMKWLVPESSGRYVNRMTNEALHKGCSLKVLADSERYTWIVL
T1 sequence (Q14498 250-328 limits assumed): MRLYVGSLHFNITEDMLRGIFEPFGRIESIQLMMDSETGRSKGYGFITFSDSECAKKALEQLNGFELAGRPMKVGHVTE
T1 sequence (Q16531 whole entry partner): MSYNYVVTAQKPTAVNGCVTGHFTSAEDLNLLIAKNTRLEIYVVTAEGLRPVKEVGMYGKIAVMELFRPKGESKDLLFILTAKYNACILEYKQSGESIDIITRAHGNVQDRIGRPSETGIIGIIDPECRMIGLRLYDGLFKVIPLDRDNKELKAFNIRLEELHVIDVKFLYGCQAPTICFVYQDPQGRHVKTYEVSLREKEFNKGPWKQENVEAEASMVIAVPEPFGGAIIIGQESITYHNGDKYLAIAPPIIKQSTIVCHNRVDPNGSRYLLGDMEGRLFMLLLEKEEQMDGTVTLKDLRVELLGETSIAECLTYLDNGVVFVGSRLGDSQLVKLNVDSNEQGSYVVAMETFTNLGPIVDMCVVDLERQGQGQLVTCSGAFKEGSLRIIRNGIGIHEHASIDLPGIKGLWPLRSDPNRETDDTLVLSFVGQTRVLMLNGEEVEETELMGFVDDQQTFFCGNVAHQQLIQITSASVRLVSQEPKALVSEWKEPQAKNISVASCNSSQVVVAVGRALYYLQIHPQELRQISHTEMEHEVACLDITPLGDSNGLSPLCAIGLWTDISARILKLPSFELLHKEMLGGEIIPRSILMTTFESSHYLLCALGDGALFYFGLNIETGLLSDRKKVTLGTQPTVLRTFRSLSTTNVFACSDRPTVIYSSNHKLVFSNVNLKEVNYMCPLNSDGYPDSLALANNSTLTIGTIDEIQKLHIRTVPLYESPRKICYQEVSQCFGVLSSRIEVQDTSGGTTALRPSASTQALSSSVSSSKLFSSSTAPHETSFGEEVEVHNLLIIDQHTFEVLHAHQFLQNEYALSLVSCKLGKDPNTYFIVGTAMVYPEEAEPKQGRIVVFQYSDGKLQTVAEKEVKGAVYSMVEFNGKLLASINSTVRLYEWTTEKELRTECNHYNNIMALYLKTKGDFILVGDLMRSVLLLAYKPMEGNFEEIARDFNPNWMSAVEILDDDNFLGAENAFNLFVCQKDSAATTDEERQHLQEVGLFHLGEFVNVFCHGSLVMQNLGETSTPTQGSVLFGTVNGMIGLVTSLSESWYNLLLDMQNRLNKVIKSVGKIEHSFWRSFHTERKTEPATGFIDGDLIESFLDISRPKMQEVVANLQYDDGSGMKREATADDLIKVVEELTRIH
Chain of DCAF15 (Q66K64 whole entry): as the sequence (Q66K64 whole entry) above
Chain of DCAF15 (Q16531 whole entry partner): as the sequence (Q16531 whole entry partner) above

Row | Compound | IC50 (HCT116 cells; [2]) | EC50 [1] | DC50 (RBM39) | IC50 (DCAF15) | IC50 (HCT116 cells; HCT116, 72 h)
1 | COCCNS(=O)(=O)c1ccc(S(=O)(=O)Nc2ccc(Cl)c3c(Cl)c[nH]c23)cc1 [Compound 2, N^1-(3,4-dichloro-1H-indol-7-yl)-N^4-(2-methoxyethyl)benzene-1,4-disulfonamide] | < 1000 nM | < 1000 nM | – | – | –
2 | NCCCCCCCNS(=O)(=O)c1ccc(S(=O)(=O)Nc2ccc(Cl)c3c(Cl)c[nH]c23)cc1 [Compound 8, N^1-(7-aminoheptyl)-N^4-(3,4-dichloro-1H-indol-7-yl)benzene-1,4-disulfonamide] | – | < 1000 nM | < 1000 nM | – | –
3 | COC(=O)CNS(=O)(=O)c1ccc(S(=O)(=O)Nc2ccc(Cl)c3c(Cl)c[nH]c23)cc1 [Compound 1, methyl ((4-(N-(3,4-dichloro-1H-indol-7-yl)sulfamoyl)phenyl)sulfonyl) glycinate] | < 1000 nM | < 1000 nM | < 1000 nM | < 100000 nM | –
4 | O=S(=O)(Nc1ccc(Cl)c2c(Cl)c[nH]c12)c1ccc(S(=O)(=O)N2CCNCC2)cc1 [Compound 42, N-(3,4-dichloro-1H-indol-7-yl)-4-(piperazin-1-ylsulfonyl)benzenesulfonamide] | < 100 nM | < 1000 nM | < 1000 nM | – | –
5 | Cc1ccc(NS(=O)(=O)c2cccc(C#N)c2)c2[nH]cc(C#N)c12 [Compound E-7820, E-7820, reference compound] | < 1000 nM | – | – | – | –
6 | Cc1ccc(NS(=O)(=O)c2cccc(C#N)c2)c2[nH]cc(C(F)F)c12 [Compound 100, 3-cyano-N-(3-(difluoromethyl)-4-methyl-1H-indol-7-yl)benzenesulfonamide] | < 1000 nM | < 5000 nM | – | – | –
7 | Cc1ccc(NS(=O)(=O)c2cc(F)cc(C#N)c2)c2[nH]cc(C(F)F)c12 [Compound 101, 3-cyano-N-(3-(difluoromethyl)-4-methyl-1H-indol-7-yl)-5-fluorobenzene sulfonamide] | < 1000 nM | < 5000 nM | – | < 100000 nM | –
8 | Cc1ccc(NS(=O)(=O)c2cccc(-n3ccnn3)c2)c2[nH]cc(C#N)c12 [Compound 96, N-(3-cyano-4-methyl-1H-indol-7-yl)-3-(1H-1,2,3-triazol-1-yl)benzenesulfonamide] | – | < 1000 nM | < 100 nM | < 20000 nM | –

Now from value to compound:

Row | IC50 (HCT116 cells; [2]) | EC50 [1] | DC50 (RBM39) | IC50 (DCAF15) | IC50 (HCT116 cells; HCT116, 72 h) | Compound
9 | < 1000 nM | < 1000 nM | – | – | – | NS(=O)(=O)c1ccc(S(=O)(=O)Nc2cccc3c(Cl)c[nH]c23)cc1 [Indisulam, indisulam, reference compound]
10 | – | < 1000 nM | < 100 nM | – | – | N#Cc1cccc(S(=O)(=O)Nc2ccc(Cl)c3c(Cl)c[nH]c23)c1 [Compound 74, 3-cyano-N-(3,4-dichloro-1H-indol-7-yl)benzenesulfonamide]
11 | – | < 1000 nM | < 100 nM | – | – | Cc1ccc(NS(=O)(=O)c2ccc(-n3ccnn3)cc2)c2[nH]cc(C#N)c12 [Compound 95, N-(3-cyano-4-methyl-1H-indol-7-yl)-4-(1H-1,2,3-triazol-1-yl)benzenesulfonamide]
12 | – | < 5000 nM | < 100 nM | – | < 5000 nM | Nc1ccc(S(=O)(=O)Nc2cnc3c(Cl)cccc3n2)cc1 [CQS, cloroquinoxaline sulfonamide, reference compound]
